The source of these data is article PMC10226132, “First-in-Class Selective Inhibitors of the Lysine Acetyltransferase KAT8” (Journal of Medicinal Chemistry, 2023).

Some results are limits rather than exact numbers.

The subject of one assay is A549 cells. Put plainly: MTT cell proliferation assay, A549. The class given is cell-based, human. Particulars: for antiproliferative activity in A549: 10, 25, 50, 100 μM; for IC50: 72 h treatment, MTT. The text has this: (§1) Human commercially available AML U937, breast cancer MCF7, lung adenocarcinoma NCI-H460, H1299 and A-549, glioblastoma U251, B lymphocyte AHH1 cell lines were maintained in compete 10% foetal bovine serum (FBS,) RPMI 1640 (Euroclone, Milan, IT) medium. Human commercially available colon cancer HCT116 and HT29 lines and cervix adenocarcinoma HeLa cells were maintained in compete 10% FBS Dulbecco’s Modified Eagle Medium (DMEM) high glucose medium (Euroclone). L-Glutamine, FBS, and penicillin streptomycin mixture added to medium were obtained from Euroclone. All cell lines were cultured at 37 °C in a humidified atmosphere of 5% CO2:95% air and were tested for mycoplasma contamination routinely by RT-PCR.
(§2) For analysis of cell proliferation, cells were plated in sextuplicate on 96-well plates in complete media. After 24 h, cells were exposed to different drugs for 72 h. The inhibitory effect of different drugs was assessed by MTT (Sigma, St. Louis, MO, USA) colorimetric assays as previously reported.[67] Aqueous DMSO (0.5% v/v) was used as a control (untreated). The results are reported as “viability of drug-treated cells/viability of untreated cells” × 100 and represent the average ±SD of three independent experiments. IC50 values were using fitted by nonlinear regression using GraphPad Prism 8.0.

In the next assay the test system is H3K27Ac in HT29 cells. The experiment in a line: Immunofluorescence of H3K27Ac in HT29 cells. The class given is cell-based, human. Particulars: 24 h, vs control. Here is the method:
For IF analysis, 1 × 10^5 HT-29 cells were grown on sterile coverslips. After 24 h, cells were exposed to different compounds for 24 h. IF staining for different acetylated lysine residues of histone H3 (H3K27Ac) and H4 (H4K16Ac) were carried out on PFA-fixed cells blocked with 20% goat serum in PBS and incubated overnight at 4 °C with primary rabbit monoclonal antibodies histone H3K27Ac (D5E4, Rabbit mAb#8173) and H4K16Ac (E2B8W, Rabbit mAb#13534, Cell Signalling Technology). Primary antibodies were detected using rabbit anti-IgG secondary antibodies conjugated with Cy3 (Jackson Immunoresearch 711-165-152). DNA was stained using 0.05 μg/mL 4′,6-diamidino-2-phenylindole (DAPI). The samples were acquired using an Olympus AX70 (Olympus America Inc.) microscope. Serial Z stacks of 0.4 μm thickness were acquired, taking care to cover the entire cell volume. For quantification of fluorescence intensity signals, images of untreated or treated cells were analyzed and processed using opensource Cell Profiler 4.1.3 image analysis software (https://cellprofiler.org/) to measure fluorescence-integrated intensity values for antibody binding relating to individual cells as previously reported.[67]

The target in another assay is T1, KAT3B (Homo sapiens, UniProt Q09472).
T1 construct: KAT3B (aa 1284–1672, 1 nM); purchased Reaction Biology Corporation
T1 sequence (Q09472 1284-1672): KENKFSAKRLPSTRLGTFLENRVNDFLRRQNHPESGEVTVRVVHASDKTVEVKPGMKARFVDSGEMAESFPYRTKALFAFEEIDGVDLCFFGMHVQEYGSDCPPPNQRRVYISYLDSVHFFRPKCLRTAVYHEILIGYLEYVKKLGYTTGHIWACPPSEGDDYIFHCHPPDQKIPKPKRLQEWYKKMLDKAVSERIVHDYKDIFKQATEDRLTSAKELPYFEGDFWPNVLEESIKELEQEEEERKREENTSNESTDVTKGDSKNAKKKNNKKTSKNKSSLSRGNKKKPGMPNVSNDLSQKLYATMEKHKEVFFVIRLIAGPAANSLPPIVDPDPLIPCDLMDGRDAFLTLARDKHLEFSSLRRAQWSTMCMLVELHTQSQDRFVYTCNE
Put plainly: HotSpot KAT assay, KAT3B. The class given is biochemical. Particulars: enzyme 1 nM, NI = no inhibition at 200 μM, mean ± SD of three independent experiments; for IC50: read-out: IC50 KAT3B (1 nM).

Another assay deals with T2, KAT2A (Homo sapiens, UniProt Q92830).
T2 construct: human KAT2A (aa 323–837, 15 nM); purchased Reaction Biology Corporation
T2 sequence (Q92830 323-837): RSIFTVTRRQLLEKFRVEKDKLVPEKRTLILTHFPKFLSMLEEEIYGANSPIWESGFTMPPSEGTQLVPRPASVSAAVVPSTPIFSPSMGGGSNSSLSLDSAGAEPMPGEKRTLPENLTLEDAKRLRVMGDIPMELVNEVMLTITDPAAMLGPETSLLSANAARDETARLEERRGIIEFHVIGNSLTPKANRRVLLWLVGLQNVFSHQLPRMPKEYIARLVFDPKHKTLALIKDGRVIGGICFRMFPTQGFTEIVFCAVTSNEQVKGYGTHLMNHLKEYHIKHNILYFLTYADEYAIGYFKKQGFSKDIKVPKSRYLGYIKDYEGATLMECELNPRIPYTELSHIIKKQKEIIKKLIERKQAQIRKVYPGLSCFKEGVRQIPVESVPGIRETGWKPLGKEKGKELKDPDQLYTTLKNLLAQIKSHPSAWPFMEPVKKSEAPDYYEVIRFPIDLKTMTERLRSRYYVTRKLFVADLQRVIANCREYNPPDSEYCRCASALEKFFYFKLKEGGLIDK
The experiment in a line: HotSpot KAT assay, KAT2A. The class given is biochemical. Particulars: 200 μM, NI = no inhibition; for inhibition at 200 µM: read-out: % inhibition at 200 μM KAT2A (15 nM). Here is the method: The effects of the compounds on other KATs were determined using the HotSpot KAT assay (Reaction Biology Corporation, Malvern, PA, USA) according to the supplier’s procedure. The recombinant catalytic domains of human KAT2A (aa 323–837, 15 nM), KAT2B (aa 492–658, 25 nM), KAT3B (aa 1284–1672, 1 nM), KAT6A (aa 488–778, 10 nM), KAT6B (aa 657–1069, 10 nM), and full length human KAT5 (25 nM) and KAT7 (25 nM) were used. Each enzyme was incubated with the relevant histone peptide [H3 peptide for KAT2A, KAT2B, KAT3B, KAT6A, and KAT7 (2.5–5 μM, depending on the KAT isoform); H2A peptide for KAT5 (1.25 μM); H4 peptide for KAT6B (2.5 μM)] as a substrate and radio-isotope-labeled [^3H]Acetyl-CoA (0.2–1.5 μM, depending on the KAT isoform) as an acetyl donor in the assay buffer [50 mM Tris–HCl (pH 8.0), 50 mM NaCl, 0.1 mM EDTA, 1 mM DTT, 0.1 mM PMSF, 1% DMSO] for 1 h at 30 °C in the presence or absence of various compounds (1% DMSO final) titrated in a 2-fold serial dilution starting at 200 μM. Histone peptide acetylation was assessed by liquid scintillation counting using a Tri-Carb 2800TR Liquid Scintillation Analyzer (Perkin Elmer). Experiments were performed in biological triplicates. Signal reduction compared to control was plotted (as inhibition percentage) as a function of compound concentration. In cases in which an IC50 was calculated, the values were fitted by nonlinear regression (GraphPad Prism 8.0).

In another assay the test system is U251 cells. The experiment in a line: MTT cell proliferation assay, U251. The class given is cell-based, human. Particulars: 10, 25, 50, 100 μM, 72 h.
Text: as §1, §2
A general note: Formazan colour is commonly taken as a measure of viable cells.

The term IC50 denotes the concentration that inhibits the measured activity by half. In general, inhibition refers to how much of the control response was suppressed. `CC1=NN(c2ccc(C(=O)O)cc2)C(=O)/C1=C\c1ccc[nH]1` [Compound 19, (Z)-4-(4-((1H-Pyrrol-2-yl)methylene)-3-methyl-5-oxo-4,5-dihydro-1H-pyrazol-1-yl)benzoic Acid]: the “antiproliferative activity in A549” value in the assay on A549 cells (72 h) is reported as “dose-dependent antiproliferative effects”. The IC50 in the assay on A549 cells (Homo sapiens, A549) was found to be 41 ± 9.8 µM. Also, the “levels of histone H3K27Ac (IF)” value in the assay on H3K27Ac in HT29 cells is recorded as “no significant differences”. For the same molecule, on KAT3B, the “IC50 KAT3B (1 nM)” value is “no inhibition at 200 μM” and the half-maximal inhibitory concentration (IC50) was greater than 200 µM. Moreover, on KAT2A, the “% inhibition at 200 μM KAT2A (15 nM)” value is listed as “did not inhibit” and the inhibition at 200 µM was 0%. For the same molecule, in the assay with U251 cells, the “antiproliferative activity in U251” value is “neither inhibitor had any effect”.
As for `O=C(O)c1ccc(N2N=C(c3ccccc3)/C(=C/c3ccc[nH]3)C2=O)cc1` [Compound 34, (Z)-4-(4-((1H-Pyrrol-2-yl)methylene)-5-oxo-3-phenyl-4,5-dihydro-1H-pyrazol-1-yl)benzoic Acid], in the assay with A549 cells (72 h), the “antiproliferative activity in A549” value is given as “dose-dependent antiproliferative effects”. The inhibition at 50 µM in the assay with A549 cells (Homo sapiens, A549, 50 μM, 72 h) was roughly 65%. This molecule registered an inhibition at 100 µM in the assay on A549 cells (Homo sapiens, A549, 100 μM, 72 h) of roughly 80%. For the same molecule, the IC50 with A549 cells (Homo sapiens, A549) is 33 ± 5.7 µM. In addition, the “levels of histone H3K27Ac (IF)” value in the assay with H3K27Ac in HT29 cells is given as “no significant differences”. In addition, the IC50 at KAT3B was greater than 200 µM. In addition, at KAT2A, the “% inhibition at 200 μM KAT2A (15 nM)” value was “did not inhibit” and the inhibition at 200 µM came to 0%. In the assay with U251 cells, the “antiproliferative activity in U251” value is “neither inhibitor had any effect”.
